melting point [°C]	Structure (SMILES)
122 to 123	Cc1oc(-c2ccco2)nc1COc1ccc(COc2nn(Cc3ccccc3)cc2C=O)cc1-c1ccccc1 [Example 59, 1-benzyl-3-[(4-{[2-(2-furyl)-5-methyl-1,3-oxazol-4-yl]methoxy}-3-phenylbenzyl)oxy]-1H-pyrazole-4-carbaldehyde]
120 to 121	CCOC(=O)c1cn(Cc2ccccc2)nc1OCc1ccc(OCc2nc(-c3ccco3)oc2C)c(C)c1 [Example 60, ethyl 1-benzyl-3-[(4-{[2-(2-furyl)-5-methyl-1,3-oxazol-4-yl]methoxy}-3-methylbenzyl)oxy]-1H-pyrazole-4-carboxylate]
176 to 177	Cc1cc(COc2nn(Cc3ccccc3)cc2C(=O)O)ccc1OCc1nc(-c2ccco2)oc1C [Example 61, 1-benzyl-3-[(4-{[2-(2-furyl)-5-methyl-1,3-oxazol-4-yl]methoxy}-3-methylbenzyl)oxy]-1H-pyrazole-4-carboxylic acid]
121 to 122	Cc1cc(COc2nn(Cc3ccccc3)cc2C=O)ccc1OCc1nc(-c2ccco2)oc1C [Example 63, 1-benzyl-3-[(4-{[2-(2-furyl)-5-methyl-1,3-oxazol-4-yl]methoxy}-3-methylbenzyl)oxy]-1H-pyrazole-4-carbaldehyde]
143 to 144	CCOC(=O)c1cn(-c2ccccc2)nc1OCc1oc2cc(OCc3nc(-c4ccccc4)oc3C)ccc2c1-c1ccccc1 [Example 64, ethyl 3-({6-[(5-methyl-2-phenyl-1,3-oxazol-4-yl)methoxy]-3-phenyl-1-benzofuran-2-yl}methoxy)-1-phenyl-1H-pyrazole-4-carboxylate]
200 to 201	Cc1oc(-c2ccccc2)nc1COc1ccc2c(-c3ccccc3)c(COc3nn(-c4ccccc4)cc3C(=O)O)oc2c1 [Example 65, 3-({6-[(5-methyl-2-phenyl-1,3-oxazol-4-yl)methoxy]-3-phenyl-1-benzofuran-2-yl}methoxy)-1-phenyl-1H-pyrazole-4-carboxylic acid]
118 to 119	Cc1oc(-c2ccccc2)nc1COc1ccc2c(-c3ccccc3)c(COc3nn(-c4ccccc4)cc3CO)oc2c1 [Example 66, [3-({6-[(5-methyl-2-phenyl-1,3-oxazol-4-yl)methoxy]-3-phenyl-1-benzofuran-2-yl}methoxy)-1-phenyl-1H-pyrazol-4-yl]methanol]
176 to 177	Cc1oc(-c2ccccc2)nc1COc1ccc2c(-c3ccccc3)c(COc3nn(-c4ccccc4)cc3C=O)oc2c1 [Example 67, 3-({6-[(5-methyl-2-phenyl-1,3-oxazol-4-yl)methoxy]-3-phenyl-1-benzofuran-2-yl}methoxy)-1-phenyl-1H-pyrazole-4-carbaldehyde]
125 to 126	CCOC(=O)c1cn(Cc2ccccc2)nc1OCc1ccc(OCc2nc(-c3ccco3)oc2C)c(CC)c1 [Example 68, ethyl 1-benzyl-3-[(3-ethyl-4-{[2-(2-furyl)-5-methyl-1,3-oxazol-4-yl]methoxy}benzyl)oxy]-1H-pyrazole-4-carboxylate]
173 to 174	CCc1cc(COc2nn(Cc3ccccc3)cc2C(=O)O)ccc1OCc1nc(-c2ccco2)oc1C [Example 69, 1-benzyl-3-[(3-ethyl-4-{[2-(2-furyl)-5-methyl-1,3-oxazol-4-yl]methoxy}benzyl)oxy]-1H-pyrazole-4-carboxylic acid]
128 to 129	CCc1cc(COc2nn(Cc3ccccc3)cc2C=O)ccc1OCc1nc(-c2ccco2)oc1C [Example 71, 1-benzyl-3-[(3-ethyl-4-{[2-(2-furyl)-5-methyl-1,3-oxazol-4-yl]methoxy}benzyl)oxy]-1H-pyrazole-4-carbaldehyde]
184 to 185	COc1cc(COc2nn(-c3ccccc3)cc2C(=O)O)ccc1OCc1nc(-c2ccco2)oc1C [Example 73, 3-[(4-{[2-(2-furyl)-5-methyl-1,3-oxazol-4-yl]methoxy}-3-methoxybenzyl)oxy]-1-phenyl-1H-pyrazole-4-carboxylic acid]
175 to 176	COc1cc(COc2nn(-c3ccccc3)cc2C(N)=O)ccc1OCc1nc(-c2ccco2)oc1C [Example 74, 3-[(4-{[2-(2-furyl)-5-methyl-1,3-oxazol-4-yl]methoxy}-3-methoxybenzyl)oxy]-1-phenyl-1H-pyrazole-4-carboxamide]
177 to 178	CCOC(=O)/C=C/c1cn(-c2ccccc2)nc1OCc1ccc(OCc2nc(-c3ccco3)oc2C)c(OC)c1 [Example 78, ethyl (2E)-3-{3-[(4-{[2-(2-furyl)-5-methyl-1,3-oxazol-4-yl]methoxy}-3-methoxybenzyl)oxy]-1-phenyl-1H-pyrazol-4-yl}-2-propenoate]
204 to 205	COc1cc(COc2nn(-c3ccccc3)cc2/C=C/C(=O)O)ccc1OCc1nc(-c2ccco2)oc1C [Example 79, (2E)-3-{3-[(4-{[2-(2-furyl)-5-methyl-1,3-oxazol-4-yl]methoxy}-3-methoxybenzyl)oxy]-1-phenyl-1H-pyrazol-4-yl}-2-propenoic acid]
152 to 153	Cc1oc(-c2ccccc2)nc1COc1ccc(COc2nn(-c3ccccc3)cc2C=O)cc1 [Example 80, 3-({4-[(2-phenyl-5-methyl-1,3-oxazol-4-yl)methoxy]benzyl}oxy)-1-phenyl-1H-pyrazole-4-carbaldehyde]

melting point [°C]	Structure (SMILES)
118 to 119	Cc1oc(-c2ccccc2)nc1COc1ccc(COc2nn(-c3ccccc3)cc2CO)cc1 [Example 81, [3-({4-[(2-phenyl-5-methyl-1,3-oxazol-4-yl)methoxy]benzyl}oxy)-1-phenyl-1H-pyrazol-4-yl]methanol]
154 to 155	CCOC(=O)/C=C/c1cn(-c2ccccc2)nc1OCc1ccc(OCc2nc(-c3ccccc3)oc2C)cc1 [Example 82, ethyl (2E)-3-[3-({4-[(2-phenyl-5-methyl-1,3-oxazol-4-yl)methoxy]benzyl}oxy)-1-phenyl-1H-pyrazol-4-yl]-2-propenoate]
186 to 187	Cc1oc(-c2ccccc2)nc1COc1ccc(COc2nn(-c3ccccc3)cc2/C=C/C(=O)O)cc1 [Example 83, (2E)-3-[3-({4-[(2-phenyl-5-methyl-1,3-oxazol-4-yl)methoxy]benzyl}oxy)-1-phenyl-1H-pyrazol-4-yl]-2-propenoic acid]
148 to 149	Cc1oc(-c2ccco2)nc1COc1ccc(COc2nn(-c3ccccc3)cc2C=O)cc1 [Example 85, 3-[(4-{[2-(2-furyl)-5-methyl-1,3-oxazol-4-yl]methoxy}benzyl)oxy]-1-phenyl-1H-pyrazole-4-carbaldehyde]
142 to 143	CCOC(=O)/C=C/c1cn(-c2ccccc2)nc1OCc1ccc(OCc2nc(-c3ccco3)oc2C)cc1 [Example 87, ethyl (2E)-3-(3-[(4-{[2-(2-furyl)-5-methyl-1,3-oxazol-4-yl]methoxy}benzyl)oxy]-1-phenyl-1H-pyrazol-4-yl}-2-propenoate]
144 to 145	Cc1oc(-c2ccco2)nc1COc1ccc(COc2nn(-c3ccccc3)cc2/C=C/C(=O)O)cc1 [Example 88, (2E)-3-{3-[(4-{[2-(2-furyl)-5-methyl-1,3-oxazol-4-yl]methoxy}benzyl)oxy]-1-phenyl-1H-pyrazol-4-yl}-2-propenoic acid]
158 to 159	Cc1oc(-c2ccco2)nc1COc1ccc(COc2nn(-c3ccccc3)cc2C#N)cc1 [Example 89, 3-[(4-{[2-(2-furyl)-5-methyl-1,3-oxazol-4-yl]methoxy}benzyl)oxy]-1-phenyl-1H-pyrazole-4-carbonitrile]
157 to 158	Cc1oc(-c2ccccc2)nc1COc1ccc(OCc2nc(-c3ccccc3)oc2CO)cc1 [Example 91, [4-({4-[(5-methyl-2-phenyl-1,3-oxazol-4-yl)methoxy]phenoxy}methyl)-2-phenyl-1,3-oxazol-5-yl]methanol]
74 to 75	COCOCc1nc(-c2ccccc2)oc1COc1ccc(OCc2nc(-c3ccccc3)oc2C)cc1 [Example 92, 4-[(methoxymethoxy)methyl]-5-({4-[(5-methyl-2-phenyl-1,3-oxazol-4-yl)methoxy]phenoxy}methyl)-2-phenyl-1,3-oxazole]
143 to 144	Cc1oc(-c2ccccc2)nc1COc1ccc(OCc2oc(-c3ccccc3)nc2CO)cc1 [Example 93, [5-({4-[(5-methyl-2-phenyl-1,3-oxazol-4-yl)methoxy]phenoxy}methyl)-2-phenyl-1,3-oxazol-4-yl]methanol]
187 to 188	COc1cc(COc2nn(-c3ccccc3)cc2/C=C/C(N)=O)ccc1OCc1nc(-c2ccco2)oc1C [Example 94, (2E)-3-{3-[(4-{[2-(2-furyl)-5-methyl-4-oxazolyl]methoxy}-3-methoxybenzyl)oxy]-1-phenyl-1H-pyrazol-4-yl}-2-propenamide]
177 to 178	COc1cc(COc2nn(-c3ccccc3)cc2/C=C/C#N)ccc1OCc1nc(-c2ccco2)oc1C [Example 95, (2E)-3-{3-[(4-{[2-(2-furyl)-5-methyl-1,3-oxazol-4-yl]methoxy}-3-methoxybenzyl)oxy]-1-phenyl-1H-pyrazol-4-yl}-2-propenenitrile]
190 to 191	COc1cc(COc2nn(-c3ccccc3)cc2C=C(C#N)C#N)ccc1OCc1nc(-c2ccco2)oc1C [Example 96, ({3-[(4-{[2-(2-furyl)-5-methyl-1,3-oxazol-4-yl]methoxy}-3-methoxybenzyl)oxy]-1-phenyl-1H-pyrazol-4-yl)methylene) malononitrile]
180 to 181	COc1cc(COc2nn(-c3ccccc3)cc2/C=C/C(=O)N2CCOCC2)ccc1OCc1nc(-c2ccco2)oc1C [Example 98, 4-((2E)-3-{3-[(4-{[2-(2-furyl)-5-methyl-1,3-oxazol-4-yl]methoxy}-3-methoxybenzyl)oxy]-1-phenyl-1H-pyrazol-4-yl}-2-propenoyl)morpholine]
162 to 163	COc1cc(COc2nn(-c3ccccc3)cc2/C=C/C2=NCCO2)ccc1OCc1nc(-c2ccco2)oc1C [Example 99, 4-({4-[({4-[(E)-2-(4,5-dihydro-1,3-oxazol-2-yl)ethenyl]-1-phenyl-1H-pyrazol-3-yl}oxy)methyl]-2-methoxyphenoxy}methyl)-2-(2-furyl)-5-methyl-1,3-oxazole]

Reference: US7368578B2, “Five-membered heterocyclic compounds” (Takeda Pharmaceutical Company Limited, priority 2002, dated 2008)
